From patent US20250144132A1, “POLYSACCHARIDE COMPOUND WITH A DEFINED MOLECULAR STRUCTURE THAT CAN ELIMINATE THE TOXIC SIDE EFFECTS OF CHEMOTHERAPY DRUGS” (priority 2023, published 2025)
Read-outs that look alike come from different tables or passages of the source.

Tests used:
LLC cells = assay: Cytotoxic effects of Ganoderma lucidum polysaccharide GLP-1 combined with cisplatin on LLC cells (MTT, absorbance at 570 nm); assay type: cell-based; details: 48 h, GLP-1 2 mg/mL
Protocol: LLC lung cancer cells were seeded in a 96-well cell culture plate at 3,000 cells per well and incubated at 37° C. in a 5% CO2 incubator for 24 h. […] The cultures were then incubated for another 48 h before measuring the absorbance at 570 nm.

[1] = test system: 4T1 breast tumor-bearing mice; assay type: in vivo, BALB/c mice
Protocol: A suspension of 4T1 breast cancer cells was injected subcutaneously into the left shoulder back of 60 healthy female BALB/c mice to create solid tumor models. When the mean tumor volume reached approximately 190 mm^3, the mice were randomized into groups based on tumor volume, and were administered the respective drugs or drug solvents via oral gavage or intraperitoneal injection over 18 consecutive days. Longest and shortest diameters of tumors were measured every three days to calculate tumor volume, and mouse weights were recorded every three days. At the end of the experiment, tumors, spleens, and thymuses were harvested and weighed to calculate tumor, spleen, and thymus indices.
Based on previous experimental results, Ganoderma lucidum polysaccharide GLP-1 was administered at a low dose of 50 mg/kg and a high dose of 150 mg/kg as shown in Table 27.
(§1) Where TRTV is the relative tumor volume in the experimental group, and CRTV is the relative tumor volume in the model control group. Relative tumor volume (RTV)=Vt/V0, where Vt is the tumor volume on day t of dosing, and V0 is the tumor volume at the time of grouping.
(§2) Where T represents the average tumor weight in the treatment group, and C represents the average tumor weight in the model control group.
(§3) Spleen and thymus organ coefficients: After the last dose, spleen, thymus, and tumor weights are measured, and organ coefficients are calculated.
(§4) Tumor index (%)=(tumor weight/body weight)×100%.
(§5) Immune organ index (mg/g)=(organ mass/body weight)×1000.
(§6) Statistical analyses were performed using SPSS 17.0, with the significance level set at P≤0.05. Measurement data were expressed as mean±standard deviation (˜±s). Normality and homogeneity of variance were tested using Leven's test. If data met normality and homogeneity of variance (P>0.05), one-way ANOVA and LSD test were used for statistical analysis. […] If the Kruskal-Wallis test was statistically significant (P<0.05), comparison analysis was performed using Dunnett's Test (a non-parametric method). Evaluation considered statistical differences and biological significance.

LLC-bearing mice = details: cisplatin 4 mg/kg, Kanglaite 1404 mg/kg
H22-bearing mice = assay type: in vivo
Protocol: A homogenate suspension of H22 hepatoma solid tumors was injected subcutaneously under the axilla of 65 healthy male C57 mice to create a solid tumor model. Once all mouse tumors averaged a volume of about 230 mm3, mice were randomized into groups based on tumor volume and were administered the respective drugs or drug solvents via oral gavage or intraperitoneal injection for 25 consecutive days. Longest and shortest diameters of tumors were measured every three days to calculate tumor volume, and mouse weights were recorded every three days. At the end of the experiment, tumors, spleens, and thymuses were harvested and weighed to calculate tumor, spleen, and thymus indices.
Based on previous experimental results, Ganoderma lucidum polysaccharide GLP-1 was administered at a low dose of 50 mg/kg and a high dose of 150 mg/kg as shown in Table 20.
as §1, §2, §3, §4, §5
as §6, with “(x±s).” for “(˜±s).”

[2] = blood, flow cytometry, GLP-1 low-dose 130 mg/kg
[3] = cisplatin 3 mg/kg, GLP-1 low-dose 50 mg/kg

N.N.[Cl][Pt][Cl] [Cisplatin, cisplatin] showed an Inhibition rate (LLC cells) of 35.2%, a Number of deaths ([1]; 4T1 breast tumor-bearing mice, 8 animals, cisplatin 4 mg/kg i.p.) of 1 and a Survival time ([1]; 4T1 breast tumor-bearing mice, 18-day dosing, cisplatin 4 mg/kg i.p.) of 17.1 ± 2.3 days. The Tumor volume ([1]; 4T1 breast tumor-bearing mice, D0, cisplatin 4 mg/kg i.p.) was 190.5 ± 34.8 mm^3, the “Tumor growth inhibition rate vs. the model control group” value ([1]; 4T1 breast tumor-bearing mice, end of experiment, cisplatin 4 mg/kg i.p.) was 71.6% and the “Tumor growth inhibition rate compared to the model control group” value ([1]; by tumor weight, cisplatin 4 mg/kg, GLP-1 low-dose 50 mg/kg) was 71.6%. It also gave a Tumor volume (LLC-bearing mice; D1, GLP-1 low-dose 130 mg/kg) of 94.99 mm^3, a Tumor volume (LLC-bearing mice; D4, GLP-1 low-dose 130 mg/kg) of 150.58 mm^3 and a Tumor volume (LLC-bearing mice; D7, GLP-1 low-dose 130 mg/kg) of 8.91 mm^3. For the same compound, the Tumor volume (LLC-bearing mice; D10, GLP-1 low-dose 130 mg/kg) was 6.51 mm^3, the Tumor volume (LLC-bearing mice; D13, GLP-1 low-dose 130 mg/kg) was 27.36 mm^3 and the Tumor volume (LLC-bearing mice; D16, GLP-1 low-dose 130 mg/kg) was 36.09 mm^3. For the same compound, the Tumor volume (LLC-bearing mice; D19, GLP-1 low-dose 130 mg/kg) was 71.00 mm^3, the Tumor volume (LLC-bearing mice; D22, GLP-1 low-dose 130 mg/kg) was 824.01 mm^3 and the Tumor volume (LLC-bearing mice; D25, GLP-1 low-dose 130 mg/kg) was 976.79 mm^3. The Tumor histopathology (LLC-bearing mice; H&E, x200) was “large areas of necrosis and hemorrhage were visible at the tumor center, with abundant tumor cells”, the Tumor coefficient (LLC-bearing mice; after last dose, GLP-1 low-dose 130 mg/kg) was 7.528 ± 2.567 % and the “CD3^+/CD4^+” value (LLC-bearing mice; [2]) was 0.093 ± 0.025. For the same compound, the “CD3^+/CD8^+” value (LLC-bearing mice; [2]) was 1.571 ± 0.406, the “Tumor growth inhibition rate” value (LLC-bearing mice; by tumor weight vs model control, GLP-1 low-dose 130 mg/kg) was 61.6% and the “Blood WBC level compared to the model control group” value (LLC-bearing mice; GLP-1 low-dose 130 mg/kg) was “significantly decreased”. For the same compound, the “Body weight compared to the model control group” value (LLC-bearing mice; GLP-1 low-dose 130 mg/kg) was “significantly decreased after administration from D7 to D25”, the Mortality rate (LLC-bearing mice; GLP-1 low-dose 130 mg/kg) was 0% and the Number of deaths (LLC-bearing mice; GLP-1 low-dose 130 mg/kg) was 0. For the same compound, the “Number of surviving animals” value (LLC-bearing mice; GLP-1 low-dose 130 mg/kg) was 8, the Survival time (H22-bearing mice; 25 days of dosing, cisplatin 3 mg/kg, GLP-1 low-dose 50 mg/kg) was 25 ± 0 days and the “Tumor growth inhibition rate vs. the model control group” value (H22-bearing mice; H22-bearing mice, end of experiment, cisplatin alone) was 84.2%. For the same compound, the “Tumor growth inhibition rate compared to the model control group” value (H22-bearing mice; by tumor weight, cisplatin 3 mg/kg, GLP-1 low-dose 50 mg/kg) was 84.2%, the Mortality rate (H22-bearing mice; [3]) was 0% and the Number of deaths (H22-bearing mice; [3]) was 0.
